From ChEMBL document CHEMBL4196086, “Recent advances of imidazole-containing derivatives as anti-tubercular agents” (Eur J Med Chem, 2018) come the findings set out here.

Values after ≈ are worked out from the molar mass of the structure shown. Where only a bound is given, the exact number is not on record here.

Assay [1] deals with Mycobacterium tuberculosis. The assay is described as follows: Potency index, ratio of streptomycin MIC to compound MIC for Mycobacterium tuberculosis. The format is functional.
The test system of assay [2] is Mycobacterium tuberculosis. As to the kind of experiment: Potency index, ratio of PA-824 MIC to compound MIC for Mycobacterium tuberculosis. Type of assay: functional.
In assay [3] the test system is Mycobacterium tuberculosis. As to the kind of experiment: Potency index, ratio of ethionamide MIC to compound MIC for Mycobacterium tuberculosis. The format is functional.
For assay [4], the system named is Mycobacterium tuberculosis. As to the kind of experiment: Potency index, ratio of isoniazid MIC to compound MIC for Mycobacterium tuberculosis. Type of assay: functional.
In assay [5] the test system is Mycobacterium tuberculosis. The assay is described as follows: Antimycobacterial activity against Mycobacterium tuberculosis. The format is functional.
Assay [6] has as its system Mycobacterium tuberculosis. As to the kind of experiment: Potency index, ratio of ofloxacin MIC to compound MIC for Mycobacterium tuberculosis. Type of assay: functional.
Assay [7] deals with Mycobacterium tuberculosis. The assay is described as follows: Potency index, ratio of ethambutol MIC to compound MIC for Mycobacterium tuberculosis. Type of assay: functional.
Assay [8] has as its system Mycobacterium tuberculosis. As to the kind of experiment: Antimycobacterial activity against non-replicating Mycobacterium tuberculosis. Type of assay: functional.
In assay [9] the test system is Mycobacterium tuberculosis. As to the kind of experiment: Antimycobacterial activity against replicating Mycobacterium tuberculosis. The format is functional.
Assay [10] relates to Mycobacterium tuberculosis. As to the kind of experiment: Potency index, ratio of ciprofloxacin MIC to compound MIC for Mycobacterium tuberculosis H37Rv. The format is functional.
The next assay concerns HEK293. As to the kind of experiment: Cytotoxicity against HEK293 cells after 24 hrs by MTT assay. Type of assay: cell-based. To be noted: Homo sapiens, HEK293, 24 h.
Assay [11] concerns Mycobacterium tuberculosis. The assay is described as follows: Potency index, ratio of pyrazinamide MIC to compound MIC for Mycobacterium tuberculosis H37Rv. Type of assay: functional.
Assay [12] relates to Mycobacterium tuberculosis. The assay is described as follows: Potency index, ratio of streptomycin MIC to compound MIC for Mycobacterium tuberculosis H37Rv. Type of assay: functional.
Assay [13] deals with Mycobacterium tuberculosis. As to the kind of experiment: Potency index, ratio of isoniazid MIC to compound MIC for Mycobacterium tuberculosis H37Rv. Type of assay: functional.
Assay [14] concerns Mycobacterium tuberculosis. As to the kind of experiment: Antimycobacterial activity against Mycobacterium tuberculosis H37Rv after 5 days by MABA. Type of assay: functional. To be noted: 120 h.
The subject of assay [15] is Mycobacterium tuberculosis. The assay is described as follows: Antimycobacterial activity against Mycobacterium tuberculosis ATCC 35837. Type of assay: functional.
Assay [16] relates to Mycolicibacterium fortuitum. The assay is described as follows: Antimycobacterial activity against Mycobacterium fortuitum. Type of assay: functional.
Assay [17] has as its system Mycobacterium tuberculosis. The assay is described as follows: Antimycobacterial activity against Mycobacterium tuberculosis ATCC 27294. The format is functional.
Assay [18] has as its system Mycobacterium tuberculosis. The assay is described as follows: Antimycobacterial activity against Mycobacterium tuberculosis ATCC 35820. Type of assay: functional.
Assay [19] deals with Mycolicibacterium smegmatis. The assay is described as follows: Antimycobacterial activity against Mycobacterium smegmatis. The format is functional.
Assay [20] has as its system Mycobacterium tuberculosis. As to the kind of experiment: Antimycobacterial activity against Mycobacterium tuberculosis ATCC 35828. The format is functional.
The subject of assay [21] is Mycobacterium tuberculosis. As to the kind of experiment: Antimycobacterial activity against Mycobacterium tuberculosis ATCC 35822. Type of assay: functional.
Assay [22] has as its system Mycobacterium tuberculosis. As to the kind of experiment: Antimycobacterial activity against Mycobacterium tuberculosis H37Rv ATCC 27294 by serial dilution assay. The format is functional.
Assay [23] concerns Mycobacterium tuberculosis. The assay is described as follows: Antimycobacterial activity against Mycobacterium tuberculosis H37Rv. The format is functional.

Turning to `Cc1ccn2c(C(=O)NCc3ccccc3Cl)c(C)nc2c1`, the Ratio in [1], in assay [2], in assay [3], in [4], in assay [6] and in assay [7] was over 100 each time. Moreover, the lowest concentration to inhibit growth in assay [5] (MIC) was 0.003 µM (≈ 0.000941 µg/mL).

For the compound `CCCc1cc(=O)oc2c1c(OC)cc1[nH]c(C(=O)OCC)[n+]([O-])c12`, the MIC in [8] and in assay [9] was over 50 µg/mL each time.

`Cn1c(-c2cccc(Cl)c2Cl)nc2cc(-c3nc(-c4ccccc4Cl)no3)ccc21`: the Ratio was found to be 2 in [10], 2 in assay [11], 4 in assay [12] and 4 in [13]. The same compound showed an IC50 in the assay with HEK293 of 355 µg/mL (≈ 780 µM). For the same compound, in assay [14], the MIC was in the range of 1.6 to 25 µg/mL (≈ 3.51 to 54.9 µM).

As to `CCCc1cc(=O)oc2c1c(OC)cc1[nH]c(C(=O)N(C)C)[n+]([O-])c12`, the MIC in assay [8] and in [9] was over 50 µg/mL in each case.

Consider `Clc1ccc(-n2ncc(C(c3ccccc3)n3ccnc3)c2-c2ccccc2Cl)c(Cl)c1` (centres undefined), for which the MIC in [15], in assay [16], in assay [17], in assay [18], in assay [19] and in assay [20] was 6.7 to 57.7 µM (≈ 3.21 to 27.7 µg/mL) throughout. Moreover, the MIC in [21] was in the range of 6.7 to 57.7 µM (≈ 3.21 to 27.7 µg/mL).

In assay [22], `CCCSc1nnc(-c2ncc([N+](=O)[O-])n2C)s1` returned an MIC of 3.12 µg/mL (≈ 10.9 µM).

Take `CCCc1cc(=O)oc2c1c(OCCN1CCOCC1)cc1[nH]c(C(=O)N(C)C)[n+]([O-])c12`: the MIC in assay [8] and in assay [9] was over 50 µg/mL throughout.

As for `CO[C@H]1/C=C/O[C@@]2(C)Oc3c(C)c(O)c4c(O)c(c(/C=N/N5CCN(C)CC5)c(O)c4c3C2=O)NC(=O)/C(C)=C\C=C\[C@H](C)[C@H](O)[C@@H](C)[C@@H](O)[C@@H](C)[C@H](OC(C)=O)[C@@H]1C` [RIFAMPIN], in [23], the MIC98 worked out at 40 µg/mL (≈ 48.6 µM). The MIC in [22] was 0.125 to 0.25 µg/mL (≈ 0.152 to 0.304 µM).
